In a melting point compilation (Tetko et al.; mined from patent text by program, amines drawn as free bases though some values may be those of a salt):

SMILES | melting point [°C]
CS(=O)(=O)NC(=O)CCCC[C@H]1CCSS1 | 71 to 73
OCc1cc(CCCCCCCOc2ccc(C3=NCCO3)cc2)on1 | 122 to 124
CC(C)(C)NC(=O)[C@@H]1C[C@H](Br)CN1C(=O)OC(C)(C)C | 159 to 160
Clc1nc(Cl)nc(C2CC2)n1 | 106 to 107
C/C(=C(\C#N)C(N)=S)N1CCCCC1 | 161 to 166
O=C(O)c1ccc2c(c1)C(=O)NC(C(Cl)(Cl)Cl)N2 (stereo not drawn) | > 280
COc1ccc(-c2coc3cc(OCC(O)CN4CCOCC4)ccc3c2=O)cc1OC (stereo not drawn) | 135 to 136
O=Cc1ccccc1P(=O)(c1ccccc1)c1ccccc1 | 131 to 134
NS(=O)(=O)c1ccc(-c2cc3c(cc2-c2ccc(F)cc2)OCO3)cc1 | 191 to 192
CCc1cccc(C(C)C)c1NC(=O)NCC1(c2ccccc2)CCCCC1 | 178 to 180
NS(=O)(=O)c1ccc(-c2cnn(CC(F)(F)F)c(=O)c2-c2ccc(Cl)cc2)cc1 | 154 to 156
COc1ccc2c(c1)S(=O)(=O)N(CCCN1CCN(c3ncccn3)CC1)C(=O)N2 | 178
N=C(NC(=O)NCCCCCCNC(=O)NC(=N)Nc1ccc(Cl)cc1)Nc1ccc(Cl)cc1 | 186 to 190
COc1cc(C=Cc2ccccc2)cc(OC)c1 | 56.4
CC(CC(O)(C(=O)O)C(F)(F)F)c1ccccc1 (stereo not drawn) | 145 to 146
O=C(CCC1CCCCC1)NC1N=C(C2CCCCC2)c2ccccc2NC1=O (stereo not drawn) | 133 to 138
O=C(c1ccc(F)cc1)N1CCN(S(=O)(=O)c2ccc(Nc3ccnc4cc(Cl)ccc34)cc2)CC1 | 235 to 237
Cn1cnc2cc3[nH]c(-c4ccncc4)nc3cc21 | > 280
CC(=O)NC1CCN(Cc2ccc(CCn3cnc4cc(-c5ccc(Cl)cc5)sc4c3=O)cc2)C1 (stereo not drawn) | 196 to 198
C=CCCCC(C#N)(C#N)Cc1ccc(C#N)cc1 | 91.5

SMILES | melting point [°C]
Cc1nc2cc3c(cc2s1)C1(CO3)C(=O)N(CC2CCOCC2)c2ccccc21 (stereo not drawn) | 186 to 187
O=C(NCc1ccccc1)c1cnccc1-c1ccccc1 | 164 to 166
OCCON=Cc1ccccn1 | 45
CN(C)C(=NC1CCCCC1)C(N)=S | 116 to 120
NC(=O)c1ccc2c(c1-c1c(C(N)=O)ccc3c1OCO3)OCO2 | 249 to 250
CC(CSC(=S)c1ccccc1)C(=O)N1CCCC1C(=O)O (stereo not drawn) | 157 to 158
O=C1CCC(c2ccccc2)(c2ccccc2)[C@@H]2CN(C(=S)Cc3ccccc3)C[C@H]12 (racemic) | 221
O=C(Nc1cc2ccccc2cn1)c1ncccc1NCc1ccncc1 | 168
CC12CCC(F)CC1=CCC1C2CCC2(C)C(O)CCC12 (stereo not drawn) | 165 to 166
Cc1ccc(C)c(-c2sc(NC(=O)[C@@H]3CC4CCC3CC4)c(C#N)c2Cl)c1 | 208 to 210
CC(=O)OC(Cn1cncn1)(c1ccc(F)cc1F)C1(S(=O)(=O)Cl)CC1 (racemic) | 163 to 165
COc1cc(C)nc(NCn2cncn2)n1 | 191 to 193
CC(C)OC(=O)c1cc(-n2c(=O)n3n(c2=S)COCC3)c(F)cc1Cl | 67 to 69
Nc1ccc(-c2nccc(-c3nc(-c4ccc(C(F)(F)F)cc4)cc(C(F)(F)F)n3)n2)cn1 | 236
O=C1c2ccccc2C(=O)N1CCCCCCN1CCC(c2nc(-c3ccncc3)c(-c3ccc(Cl)c(Cl)c3)[nH]2)CC1 | 129 to 134
Cc1cc(F)ccc1-c1nc(NC2CCCCC2)nc2c1ccc(=O)n2-c1ccccc1F | 181 to 182
Nc1ccc(-c2noc(-c3cnn4c(C(F)(F)F)cc(-c5ccc(F)c(F)c5)nc34)n2)cn1 | 262
CCCn1nc2c(N)nc3c(c2c1CCCc1cc(-c2ccccc2)no1)CCCC3 | 154 to 155
CCOC(=O)C1CCc2scnc2C1=O (stereo not drawn) | 81 to 82
CC(=O)c1ccc(Cl)cn1 | 58 to 65

SMILES | melting point [°C]
Nc1nc(N)c2c(Sc3ccccc3)cccc2n1 | 195 to 197
Cc1cc(-c2cc(C(F)(F)F)nc(-c3cccc(-c4ccc(S(N)(=O)=O)s4)c3)n2)ccc1C(F)(F)F | 216
Cc1ccc(C)c2cc3ccccc3cc12 | 70 to 72
C=CCN(C=CC=C(C#N)C#N)CC=C | 50 to 52
COc1cc(OC)c2c(=O)cc(-c3ccc(C)cc3)oc2c1C1=CCN(C)CC1 | 113 to 114
N#Cc1c(Nc2cccc(Cl)c2)n[nH]c1N | 195 to 200
CS(=O)(=O)c1ccc(-c2cc(CBr)nn2-c2ccc(Cl)cc2)cc1 | 60 to 64
O=C(O)c1cn(CCF)c2nc(N3CCNCC3)c(F)cc2c1=O | 223 to 225
c1ccc(OCCSCc2nnc(-c3ccc(OCCN4CCOCC4)cc3)o2)cc1 | 70 to 72
Cc1ccc(-n2nc(C(C)(C)C)cc2NC(=O)Nc2ccc(-c3cnc4c(c3)NC(=O)CO4)c3ccccc23)cc1 | > 200
Cc1c(Nc2c(C#N)cnc3scc(C)c23)ccc2[nH]ccc12 | 261
O=C(O)c1ccc2c(c1)Cc1ccccc1CO2 | 240 to 244
CCCn1c2c(c3c4c(-c5ccccc5)csc4ccc31)CN(C)CC2 | 156
O=Cc1ccc(C(=O)Nc2ccc(OCC(F)(F)C(F)F)cc2)cc1 | 152
CSCc1cc(O)cc2cc(-c3ccc(O)cc3)oc12 | 188 to 190
Clc1cc(I)ccc1CBr | 44 to 45.5
CNn1c(SC)nnc(C(C)C2CC2)c1=O (stereo not drawn) | 66 to 68
CCCCCCN(CCCCCC)CC1CCN(C(=O)Oc2ccc(Oc3ccccc3)cc2)CC1 | 46 to 47
COc1ccc(C(=O)c2cccc(F)c2F)c(O)c1Cl | 161 to 162
CCC(=O)N1CCC(NC(=O)NC2CCCCCC2)CC1 | 164 to 172

Other lines, results leading:

melting point [°C] | SMILES
196 to 198 | COc1ccc(-c2c(C)cc3c(O)cc(C)nn23)c(Cl)c1
192 | CCOC(=O)c1nc2scc(CN=[N+]=[N-])c2c(=O)[nH]1
62.2 to 63.1 | CCCCCCCCc1cc2c(cc1CCCCCCCC)c1ccsc1c1sccc21
155 to 158 | CCOC(=O)c1cnc(N)s1
294 to 296 | COc1cc(C)c(Cl)c2c(=O)oc3c(c12)C(=O)c1cccc(O)c1C3=O
174 to 176 | CCOC(=O)C1(Sc2ccccc2[N+](=O)[O-])Cc2ccc(N(C)C)cc2NC1=O (stereo not drawn)
80 to 85 | CCCn1cc(Cc2ccc(C(=O)NS(=O)(=O)c3ccccc3C)cc2OC)c2cc(CCCCC(=O)N(C)C)ccc21
90 | COc1ccc(CCN(C)CCOc2ccc(NC(=O)c3cccc4c3Nc3ccccc3S4)cc2)cc1OC
234 to 235 | CCCCC[C@H]1CC[C@H](c2ccc(C(N)=O)cc2)CC1
212 to 216 | CCOC(=O)c1cn(C2CC2)c2c(CO)c(N3CCOCC3)c(F)cc2c1=O
177 to 178 | COc1ccc(S(=O)(=O)N(CC(=O)NO)Cc2ccc3ccccc3n2)cc1
104 to 106 | CC(C)c1nc(CCCOCc2ccccc2)n(CCO)c1Sc1cc(Cl)cc(Cl)c1
120 to 125 | COc1cccc(CCC(=O)c2c[nH]cn2)c1OC
157 to 159 | CCOCc1nc2c(N)nc3cccnc3c2n1CC(C)(C)O
171 to 173 | CC(C)(C)OC(=O)Cn1c(=O)c(-c2c(Cl)cccc2Cl)cc2cnc(N)nc21
78 to 80 | CCN(CCCCCC(C)O)C(=O)CCC(=O)c1ccc(NS(C)(=O)=O)cc1 (stereo not drawn)
207 to 219 | CCOc1cc2c(cc1OC)C(c1ccc(NS(=O)(=O)c3ccc(C)cc3)cc1)=N[C@H]1CCN(C)C[C@@H]21
151 to 152 | CCOC(=O)[C@H](Cc1cc(OC)c(OC)cc1I)NC=O
66 | CCOC(=O)C1COc2cc(OC(C)=O)ccc2O1 (stereo not drawn)

melting point [°C] | SMILES
81 to 82 | Cc1cc(SCC#Cc2cccc(C(F)(F)F)c2)ccc1OCC(=O)O
261 to 264 | Cn1c(=O)nc(-c2ccccc2)c2cc([N+](=O)[O-])ccc21
193 to 195 | CCC1(CC)Oc2cc(OC)c(C#N)cc2[C@@H](N2CCCC2=O)[C@@H]1O (relative stereo)
172 to 182 | Nc1sc(CC(=O)O)cc1C(=O)c1ccccc1Cl
105 to 107 | COc1ccc(C=CC(=O)c2c(OC)cc(OC)cc2OC(C)=O)cc1
150 to 152 | CCC1=C(c2cccc(C(F)(F)F)c2)n2ncc(C#N)c2N(C(=O)CCl)C1
161 to 162 | CC(C)CC1(C(CCN2C(=O)c3ccc([N+](=O)[O-])cc3C2=O)C(=O)NO)CCN(CCc2ccccc2)C1=O (stereo not drawn)
109 to 111 | CN(Cc1cc2cc([N+](=O)[O-])ccc2o1)C1Cc2ccc([N+](=O)[O-])cc2C1 (stereo not drawn)
192 | COC(=O)c1ccccc1S(=O)(=O)Nn1cnn(-c2nc(OC)cc(OC)n2)c1=O
89.5 to 90.5 | CCOC(=O)Cc1cccc2c(-c3ccc([N+](=O)[O-])cc3)nccc12
97 | CCCC1=C(C(=O)OCC)C(c2cccc([N+](=O)[O-])c2)C(C(=O)OCC)=C(C)N1COCC (stereo not drawn)
95 to 105 | CCNC(=O)c1cccc(F)c1Nc1nc(Nc2cc3c(cc2OC)CCN(CC(=O)N(C)C)CC3)ncc1Cl
141 | COc1cc2c(cc1OC)CN(CCCCOc1ccc(NC(=O)c3cnc4ccccc4n3)cc1)CC2
30 | CCCCCCCCC/C=C1\SC(=O)N(CC(=O)OC)C1=O
132 to 134 | COc1cccc([C@H]2O[C@H](CC(=O)NCCCOc3cccc(C(=O)O)c3)C(=O)N(CC(C)(C)CO)c3ccc(Cl)cc32)c1OC
159 | CCCCCC(=O)OCC(=O)C1C(C)CC2C3=C(C(=O)CC21C)C1(C)C=CC(=O)C=C1C(F)C3 (stereo not drawn)
116 | COCC(=O)N1CCc2nc3ccccc3c(C)c2CC1
194 to 195 | CCCCc1nc2cccc(C(=O)O)c2n1Cc1ccc(-c2c(-c3nnn[nH]3)oc3ccccc23)cc1
159 | COc1c(C)cc2ccccc2c1C(CC(=O)O)C(=O)O (stereo not drawn)
